From the supplement of paper PMC10307832

Legend:
Test in all cases: relative viability (nuclei count vs DMSO), 5 days (fraction); higher = more cells survive
Axitinib + OSI-027 = compound: CNC(=O)c1ccccc1Sc1ccc2c(/C=C/c3ccccn3)n[nH]c2c1 [Axitinib] + COc1cccc2cc(-c3nc([C@H]4CC[C@H](C(=O)O)CC4)n4ncnc(N)c34)[nH]c12 [OSI-027] (partner 0.5 µM)
How it was run: (§1)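 Lung cancer cell lines, seeded in 1536-well plates, were treated the following day by pin tool with a single drug or with five library-drug doses (not always all listed) in √10 steps on top of a fixed anchor-drug dose. Cells were fixed and nuclei stained in one step after 5 days, and nuclei were counted. Relative viability is the nuclei count for treated wells divided by that for vehicle wells, reported as medians of duplicate plates.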

[1] = compound: Nc1nc(Nc2ccc3c(c2)CC[C@@H](N2CCCC2)CC3)nn1-c1cc2c(nn1)-c1ccccc1CCC2 [Bemcentinib] + CC(=O)c1c(C)c2cnc(Nc3ccc(N4CCNCC4)cn3)nc2n(C2CCCC2)c1=O [Palbociclib] (partner 0.5 µM)
How it was run: as §1

Bemcentinib + Foretinib = compound: Nc1nc(Nc2ccc3c(c2)CC[C@@H](N2CCCC2)CC3)nn1-c1cc2c(nn1)-c1ccccc1CCC2 [Bemcentinib] + COc1cc2c(Oc3ccc(NC(=O)C4(C(=O)Nc5ccc(F)cc5)CC4)cc3F)ccnc2cc1OCCCN1CCOCC1 [Foretinib] (partner 0.25 µM)
How it was run: as §1

Bemcentinib + Pictilisib = compound: Nc1nc(Nc2ccc3c(c2)CC[C@@H](N2CCCC2)CC3)nn1-c1cc2c(nn1)-c1ccccc1CCC2 [Bemcentinib] + CS(=O)(=O)N1CCN(Cc2cc3nc(-c4cccc5[nH]ncc45)nc(N4CCOCC4)c3s2)CC1 [Pictilisib] (partner 1 µM)
How it was run: as §1

Cell Line	relative viability (Axitinib + OSI-027; first compound 0.005 µM)	relative viability (Axitinib + OSI-027; first compound 0.01581 µM)	relative viability (Axitinib + OSI-027; first compound 0.05 µM)	relative viability (Axitinib + OSI-027; first compound 0.1581 µM)	relative viability (Axitinib + OSI-027; first compound 0.5 µM)	relative viability ([1]; first compound 0.04 µM)	relative viability ([1]; first compound 0.1265 µM)	relative viability ([1]; first compound 0.4 µM)	relative viability ([1]; first compound 1.265 µM)	relative viability ([1]; first compound 4 µM)	relative viability (Bemcentinib + Foretinib; first compound 0.04 µM)	relative viability (Bemcentinib + Foretinib; first compound 0.1265 µM)	relative viability (Bemcentinib + Foretinib; first compound 0.4 µM)	relative viability (Bemcentinib + Foretinib; first compound 1.265 µM)	relative viability (Bemcentinib + Foretinib; first compound 4 µM)	relative viability (Bemcentinib + Pictilisib; first compound 0.04 µM)	relative viability (Bemcentinib + Pictilisib; first compound 0.1265 µM)	relative viability (Bemcentinib + Pictilisib; first compound 0.4 µM)	relative viability (Bemcentinib + Pictilisib; first compound 1.265 µM)	relative viability (Bemcentinib + Pictilisib; first compound 4 µM)
201T	0.735	0.675	0.502	0.706	0.679	0.333	0.314	0.392	0.363	0.389	1.07	1.33	1.24	1.12	1.11	0.689	0.694	0.763	0.712	0.748
A549	–	–	–	–	–	–	–	–	–	–	0.95	1.03	0.977	1.08	1.11	0.524	0.445	0.579	0.534	0.494
A-427	0.422	0.329	0.442	0.434	0.486	0.55	0.515	0.534	0.532	0.532	1.09	1.1	1.24	1.06	1.19	–	0.752	0.723	0.635	0.663
ABC-1	0.597	0.436	0.482	0.456	0.448	0.532	0.825	0.654	0.655	0.639	1.05	1.18	1	0.899	0.897	0.688	0.736	0.731	0.77	0.955
BEN	0.3	0.287	0.3	0.286	0.342	0.488	0.498	0.464	0.432	0.514	0.562	0.731	0.711	0.612	0.635	0.551	0.6	0.631	0.564	0.591
CAL-12T	0.847	0.684	0.728	0.597	0.634	0.3	0.59	0.47	0.489	0.45	1.17	1.1	0.97	1.11	1.07	0.302	0.569	0.532	0.347	0.364
COR-L23	0.88	0.775	0.804	0.75	1.19	0.304	0.316	0.275	0.382	0.31	0.949	1.23	0.969	1.08	0.999	0.843	0.978	1.03	0.953	0.927
COR-L 105	0.762	0.509	0.681	0.722	0.725	0.385	0.381	0.412	0.377	0.396	1.43	1.27	1.01	0.856	0.993	0.292	0.43	0.408	0.378	0.387
Calu-6	–	–	–	–	–	–	–	–	–	–	0.93	0.938	0.947	0.917	0.905	0.917	1.15	1.1	0.953	1.03
ChaGo-K-1	0.547	0.505	0.67	0.554	0.591	0.963	0.953	1.02	0.954	0.938	0.93	1.04	0.899	0.951	0.906	0.579	0.733	0.795	0.426	0.434
EBC-1	–	–	–	–	–	–	–	–	–	–	0.0932	0.0983	0.108	0.0894	0.103	0.391	0.307	0.39	0.399	0.353
EKVX	0.708	0.708	0.746	0.737	0.69	0.333	0.362	0.427	0.427	0.405	0.837	0.488	0.842	1.11	0.834	0.404	0.474	0.503	0.436	0.451
EMC-BAC-2	0.409	0.374	0.359	0.426	0.409	0.519	0.556	0.507	0.513	0.519	0.972	1.02	1.04	1.03	1.06	0.544	0.561	0.529	0.548	0.569
EPLC-272H	0.3	0.286	0.248	0.293	0.283	0.287	0.309	0.361	0.302	0.34	0.639	0.899	0.712	0.839	0.988	–	0.356	0.343	0.294	0.316
H3255	0.651	0.512	0.612	0.599	0.544	0.283	0.305	0.297	0.275	0.334	0.897	0.857	0.766	0.892	0.724	0.463	0.488	0.448	0.465	0.557
HARA	0.445	0.414	0.666	0.49	0.802	0.211	0.252	0.215	0.314	0.243	0.856	1.11	1.01	1.04	0.958	0.407	0.423	0.338	0.392	0.371
HCC-15	0.725	0.679	0.689	0.65	0.623	0.767	0.976	0.739	0.728	0.737	1.11	1.18	1.11	1.04	1.11	0.747	0.767	0.822	0.738	0.781
HCC-44	0.451	0.439	0.404	0.605	0.614	1.02	1.03	0.96	1.01	1.1	–	–	–	–	–	0.698	0.618	0.599	0.625	0.651
HCC-78	0.365	0.335	0.358	0.362	0.356	0.461	0.455	0.438	0.409	0.48	0.578	0.486	0.555	–	0.562	0.144	0.211	0.202	0.197	0.202

Cell Line	relative viability (Axitinib + OSI-027; first compound 0.005 µM)	relative viability (Axitinib + OSI-027; first compound 0.01581 µM)	relative viability (Axitinib + OSI-027; first compound 0.05 µM)	relative viability (Axitinib + OSI-027; first compound 0.1581 µM)	relative viability (Axitinib + OSI-027; first compound 0.5 µM)	relative viability ([1]; first compound 0.04 µM)	relative viability ([1]; first compound 0.1265 µM)	relative viability ([1]; first compound 0.4 µM)	relative viability ([1]; first compound 1.265 µM)	relative viability ([1]; first compound 4 µM)	relative viability (Bemcentinib + Foretinib; first compound 0.04 µM)	relative viability (Bemcentinib + Foretinib; first compound 0.1265 µM)	relative viability (Bemcentinib + Foretinib; first compound 0.4 µM)	relative viability (Bemcentinib + Foretinib; first compound 1.265 µM)	relative viability (Bemcentinib + Foretinib; first compound 4 µM)	relative viability (Bemcentinib + Pictilisib; first compound 0.04 µM)	relative viability (Bemcentinib + Pictilisib; first compound 0.1265 µM)	relative viability (Bemcentinib + Pictilisib; first compound 0.4 µM)	relative viability (Bemcentinib + Pictilisib; first compound 1.265 µM)	relative viability (Bemcentinib + Pictilisib; first compound 4 µM)
HCC-366	0.979	0.895	1.09	1.02	0.939	0.398	0.508	0.528	0.443	0.519	0.888	0.952	0.946	0.914	0.941	0.124	0.206	0.157	0.124	0.146
HCC-827	0.822	0.745	0.826	0.759	0.933	0.529	0.537	0.461	0.526	0.471	1.13	1.05	1.08	1.09	1.08	1.11	0.943	1.05	0.877	1.07
HOP-62	0.825	0.865	0.814	0.872	0.923	0.46	0.501	0.485	0.474	0.463	1.22	1.14	1.01	1.06	1.21	0.661	0.82	–	0.712	0.92
IA-LM	–	–	–	–	–	–	–	–	–	–	1.08	1.25	0.985	1.08	1.09	0.33	0.374	0.397	0.304	0.33
LC-2-ad	0.932	0.827	0.907	0.8	0.807	0.557	0.49	0.524	0.565	0.516	0.881	0.964	1.01	0.927	0.969	0.456	0.536	0.553	0.426	0.424
LCLC-97TM1	0.589	0.51	0.427	0.48	0.475	0.253	0.283	0.231	0.261	0.264	0.941	0.97	0.929	0.964	1.02	0.16	0.183	–	0.237	0.249
LCLC-103H	0.461	0.487	0.472	0.432	0.535	0.459	0.438	0.522	0.497	0.554	0.752	0.787	0.778	0.918	0.825	0.588	0.632	0.692	0.604	0.616
LK-2	0.202	0.168	0.193	0.191	0.186	0.78	0.75	0.934	0.728	0.665	1.51	–	1.29	1.35	1.49	0.526	0.608	0.583	0.748	0.611
LOU-NH91	0.736	0.513	0.745	0.719	0.707	0.521	0.564	0.525	0.513	0.537	0.891	0.895	0.933	1.02	0.988	0.498	0.526	0.556	0.524	0.483
NCI-H522	0.765	0.665	0.572	0.857	0.647	0.834	1.04	1.07	1.1	0.915	–	–	–	–	–	–	–	–	–	–
NCI-H596	0.893	0.649	0.855	0.797	0.556	–	–	–	–	–	0.84	0.848	0.974	0.799	0.94	0.374	0.443	0.379	0.421	0.403
NCI-H1299	–	–	–	–	–	–	–	–	–	–	1.09	1.13	1.13	1.13	1.09	0.818	0.793	0.878	0.874	0.75
NCI-H1563	0.708	0.705	0.742	0.705	0.704	–	–	–	–	–	0.998	0.999	0.975	0.897	0.949	0.634	0.629	0.635	0.655	0.626
NCI-H1623	0.455	0.398	0.424	0.436	0.454	–	–	–	–	–	0.857	0.742	0.853	1.01	0.934	–	–	–	–	–
NCI-H1648	0.258	0.238	–	0.245	0.249	0.255	0.236	0.276	0.297	0.291	–	–	–	–	–	–	–	–	–	–
NCI-H1703	–	–	–	–	–	–	–	–	–	–	–	0.336	0.377	0.312	0.334	0.246	0.259	0.23	0.22	0.243
NCI-H1792	0.785	0.652	0.563	0.679	0.919	0.711	0.714	0.675	0.721	0.664	–	–	–	–	–	0.3	0.281	0.238	0.337	0.288
NCI-H2342	0.571	0.614	0.663	0.633	0.638	0.605	0.614	0.562	0.575	0.529	1.04	1.12	1.09	1.06	1.13	–	–	–	–	–
SW 900	0.646	0.536	0.562	0.564	0.699	0.58	0.594	0.518	0.538	0.591	0.827	0.948	0.976	1.05	0.974	–	–	–	–	–
